Measurements taken from ChEMBL document CHEMBL3046959, “Influence of Absolute Configuration of Indanofan on Herbicidal Activity” (2001).
Active and inactive are the calls of the source. No cut-off for these calls is given here.

Tested on: Echinochloa crus-galli
Test: Herbicidal activity against 2.5 leaf stage of Echinochloa crus-galli (barnyard grass) after 2 weeks under greenhouse condition by pot test
Format: functional

Compound	ED90
CCC1(CC2(c3cccc(Cl)c3)CO2)C(=O)c2ccccc2C1=O (single isomer, unassigned; (-)) [(RS)-INDANOFAN]	0.0524 KgAi/ha
CCC1(CC2(c3cccc(Cl)c3)CO2)C(=O)c2ccccc2C1=O (single isomer, unassigned; (+)) [(RS)-INDANOFAN]	0.0254 KgAi/ha
CCC1(CC2(c3cccc(Cl)c3)CO2)C(=O)c2ccccc2C1=O (racemic)	inactive
